Results from PMC6979384, “Characterization of the plant homeodomain (PHD) reader family for their histone tail interactions” (Epigenetics & Chromatin, 2020).

Key:
Experiment in all cases: Histone peptide microarray
Format in all cases: binding, human
[1] = tested on: KDM5A (3); settings: GST-tagged KDM5A (3); sheet Array Heatmap; each array performed twice, total n = 4
How it was run: (§1)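 GST-PHD reader, 0.5 μM, probed on 293-peptide histone array (single/combinatorial PTMs); optimized array protocol; signal = mean ± SD, n = 4.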

[2] = tested on: CHD5 (PCC); settings: GST-tagged CHD5 (PCC = PHD + Dual Chromodomain); sheet Array Heatmap; each array performed twice, total n = 4
How it was run: as §1

[3] = tested on: MORC3 (CW); settings: GST-tagged MORC3 (CW = CW-type Zn-finger); sheet Array Heatmap; each array performed twice, total n = 4
How it was run: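 Purified PHD finger domains fused to GST are screened against 293 synthetic histone peptides bearing one or several post-translational modifications. The protein is used at 0.5 μM, and the signal from four replicate arrays is averaged, with standard deviation given.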

[4] = tested on: PHF13; settings: GST-tagged PHF13; sheet Array Heatmap; each array performed twice, total n = 4
How it was run: as §1

[5] = tested on: AIRE (PP); settings: GST-tagged AIRE (PP); sheet Array Heatmap; each array performed twice, total n = 4
How it was run: as §1

[6] = tested on: CHD4 (PPCC); settings: GST-tagged CHD4 (PPCC = Dual PHD + Dual Chromodomain); sheet Array Heatmap; each array performed twice, total n = 4
How it was run: as §1

[7] = tested on: SP140L; settings: GST-tagged SP140L; sheet Array Heatmap; each array performed twice, total n = 4
How it was run: as §1

[8] = tested on: ING3; settings: GST-tagged ING3; sheet Array Heatmap; each array performed twice, total n = 4
How it was run: as §1

[9] = tested on: BAZ2B; settings: GST-tagged BAZ2B; sheet Array Heatmap; each array performed twice, total n = 4
How it was run: as §1

[10] = tested on: KDM5B (1); settings: GST-tagged KDM5B (1); sheet Array Heatmap; each array performed twice, total n = 4
How it was run: as §1

[11] = tested on: KDM4C (TTP); settings: GST-tagged KDM4C (TTP = Tandem Tudor domain + PHD); sheet Array Heatmap; each array performed twice, total n = 4
How it was run: as §1

[12] = tested on: DPF2 (PPC2W2); settings: GST-tagged DPF2 (PPC2W2 = Dual PHD + C2W2-type Zn-finger); sheet Array Heatmap; each array performed twice, total n = 4
How it was run: as §1

[13] = tested on: TRIM66 (PB); settings: GST-tagged TRIM66 (PB = PHD + Bromodomain); sheet Array Heatmap; each array performed twice, total n = 4
How it was run: as §1

[14] = tested on: MLL5; settings: GST-tagged MLL5; sheet Array Heatmap; each array performed twice, total n = 4
How it was run: as §1

[15] = tested on: TAF3; settings: GST-tagged TAF3; sheet Array Heatmap; each array performed twice, total n = 4
How it was run: as §1

[16] = tested on: PHF2; settings: GST-tagged PHF2; sheet Array Heatmap; each array performed twice, total n = 4
How it was run: as §1

[17] = tested on: DIDO1; settings: GST-tagged DIDO1; sheet Array Heatmap; each array performed twice, total n = 4
How it was run: as §1

[18] = tested on: CHD5 (PPCC); settings: GST-tagged CHD5 (PPCC = Dual PHD + Dual Chromodomain); sheet Array Heatmap; each array performed twice, total n = 4
How it was run: as §1

[19] = tested on: ING5; settings: GST-tagged ING5; sheet Array Heatmap; each array performed twice, total n = 4
How it was run: as §1

[20] = tested on: PHRF1 (RP); settings: GST-tagged PHRF1 (RP); sheet Array Heatmap; each array performed twice, total n = 4
How it was run: as §1

[21] = tested on: PHF21A; settings: GST-tagged PHF21A; sheet Array Heatmap; each array performed twice, total n = 4
How it was run: as §1

[22] = tested on: KDM5B (3); settings: GST-tagged KDM5B (3); sheet Array Heatmap; each array performed twice, total n = 4
How it was run: as §1

[23] = tested on: KDM7A; settings: GST-tagged KDM7A; sheet Array Heatmap; each array performed twice, total n = 4
How it was run: as §1

[24] = tested on: PHF8; settings: GST-tagged PHF8; sheet Array Heatmap; each array performed twice, total n = 4
How it was run: as §1

[25] = tested on: RAG2; settings: GST-tagged RAG2; sheet Array Heatmap; each array performed twice, total n = 4
How it was run: as §1

[26] = tested on: BPTF (PB); settings: GST-tagged BPTF (PB = PHD + Bromodomain); sheet Array Heatmap; each array performed twice, total n = 4
How it was run: as §1

[27] = tested on: ING4; settings: GST-tagged ING4; sheet Array Heatmap; each array performed twice, total n = 4
How it was run: as §1

[28] = tested on: ING1; settings: GST-tagged ING1; sheet Array Heatmap; each array performed twice, total n = 4
How it was run: as §1

[29] = tested on: PHF23; settings: GST-tagged PHF23; sheet Array Heatmap; each array performed twice, total n = 4
How it was run: as §1

[30] = tested on: KDM5A (1); settings: GST-tagged KDM5A (1); sheet Array Heatmap; each array performed twice, total n = 4
How it was run: as §1

[31] = tested on: ING2; settings: GST-tagged ING2; sheet Array Heatmap; each array performed twice, total n = 4
How it was run: as §1

| Substance | Array Heatmap signal (histone peptide microarray) [1] | Array Heatmap signal (histone peptide microarray) [2] | Array Heatmap signal (histone peptide microarray) [3] | Array Heatmap signal (histone peptide microarray) [4] | Array Heatmap signal (histone peptide microarray) [5] | Array Heatmap signal (histone peptide microarray) [6] | Array Heatmap signal (histone peptide microarray) [7] | Array Heatmap signal (histone peptide microarray) [8] | Array Heatmap signal (histone peptide microarray) [9] | Array Heatmap signal (histone peptide microarray) [10] | Array Heatmap signal (histone peptide microarray) [11] | Array Heatmap signal (histone peptide microarray) [12] | Array Heatmap signal (histone peptide microarray) [13] | Array Heatmap signal (histone peptide microarray) [14] | Array Heatmap signal (histone peptide microarray) [15] | Array Heatmap signal (histone peptide microarray) [16] | Array Heatmap signal (histone peptide microarray) [17] | Array Heatmap signal (histone peptide microarray) [18] | Array Heatmap signal (histone peptide microarray) [19] | Array Heatmap signal (histone peptide microarray) [20] | other results |
| --- | --- | --- | --- | --- | --- | --- | --- | --- | --- | --- | --- | --- | --- | --- | --- | --- | --- | --- | --- | --- | --- |
| H3K4me3 + K14ac: H3 1-20 | 0.8892 | 0.7404 | 0.8691 | 0.8156 | 0.3995 | 0.6173 | 0.3446 | 0.9261 | 0.6127 | 0.7346 | 0.599 | 0.7495 | 0.6346 | 0.8336 | 0.7363 | 0.9532 | 1 | 0.5519 | 0.4275 | 0.6002 | Array Heatmap signal (histone peptide microarray) [21]: 0.4155; Array Heatmap signal (histone peptide microarray) [22]: 0.7921; Array Heatmap signal (histone peptide microarray) [23]: 0.4569; Array Heatmap signal (histone peptide microarray) [24]: 0.6468; Array Heatmap signal (histone peptide microarray) [25]: 0.9484; Array Heatmap signal (histone peptide microarray) [26]: 0.8401; Array Heatmap signal (histone peptide microarray) [27]: 0.6504; Array Heatmap signal (histone peptide microarray) [28]: 0.9202; Array Heatmap signal (histone peptide microarray) [29]: 0.8632; Array Heatmap signal (histone peptide microarray) [30]: 0.4609; Array Heatmap signal (histone peptide microarray) [31]: 0.9757 |
| H3K4me3 + K18ac: H3 1-20 | 0.9747 | 0.8106 | 0.8723 | 0.813 | 0.4183 | 0.6241 | 0.3614 | 0.7492 | 0.4486 | 0.7261 | 0.6519 | 0.7175 | 0.639 | 0.8685 | 0.7205 | 1 | 0.9924 | 0.5532 | 0.4874 | 0.7444 | Array Heatmap signal (histone peptide microarray) [21]: 0.4388; Array Heatmap signal (histone peptide microarray) [22]: 0.8599; Array Heatmap signal (histone peptide microarray) [23]: 0.4973; Array Heatmap signal (histone peptide microarray) [24]: 0.6791; Array Heatmap signal (histone peptide microarray) [25]: 0.6973; Array Heatmap signal (histone peptide microarray) [26]: 0.7125; Array Heatmap signal (histone peptide microarray) [27]: 0.674; Array Heatmap signal (histone peptide microarray) [28]: 1; Array Heatmap signal (histone peptide microarray) [29]: 1; Array Heatmap signal (histone peptide microarray) [30]: 0.4457; Array Heatmap signal (histone peptide microarray) [31]: 0.9902 |
